Columns and labels:
[1] = molecular target: MAPKAPKII (Homo sapiens, UniProt P49137); experiment: In vitro phosphorylation of recombinant HSP27 with […] (immunoblot); type: biochemical; conditions: MAPKAPKII 50 ng, 30 min at 30° C.; ratio P-P27 to P27, percent phosphorylation vs no inhibitor; FIG. 1
Procedure: Recombinant HSP27 ([…]) was phosphorylated with no enzyme (control, lane 1), […] (50 ng) in the absence (lane 2) or presence of 200 μM ([…]) (SEQ ID NO: 44) obtained from Calbiochem, (lane 3), or BIP (HSP27 kinase inhibitor peptide, […] (SEQ ID NO: 45) (lane 4) or HSP20 phosphopeptide (PTD-P20, lane 4) for 30 min at 30° C. The reaction mixtures were inactivated and separated by SDS-PAGE and transferred to PVDF membrane. The blot was probed with antibodies against HSP27 and phospho-HSP27. The ratio of P-P27 to P27 was calculated and the percent phosphorylation was determined with respect to the phosphorylation obtained in the absence of inhibitor (lane 2). This blot is a representative of 2 separate experiments.

[2] = tested on: human keloid fibroblasts; experiment: TGF-β1 induced expression of CTGF and collagen in human keloid fibroblasts (immunoblot); type: cell-based
Excerpt: (§1) One important downstream signaling event in the TGFB signaling pathway is the activation of HSP27 kinase. We have designed a cell permeable inhibitor of this kinase (BIP) that effectively blocks its activity. In this study, we employ stable isotopic labeling by amino acids in cell culture (SILAC) as a means to quantitate the protein expression differences manifest during 1) TGF-β1 stimulation, 2) TGF-β1 stimulation in the presence of BIP, or 3) no treatment at all (control) in a keloid fibroblast cell line. Human keloid fibroblasts were grown to 80% confluence, and then serum-starved for 48 h. The cells were subsequently stimulated with nothing (control), with 1.25 ng/ml of transforming growth factor beta 1 (TGFβ) for 24 h, or 10 μM of a BIP for 2 h followed by TGFβ1 for 24 h (TGFβ+BIP). The expression of CTGF and collagen was assessed by immunoblot and normalized to b-actin expression. Phospho-HSP27 was expressed as a ratio to endogenous HSP27. Quantitative results represent average ±standard deviation from 3 independent experiments.
Human keloid fibroblasts were maintained in Dulbecco's modified Eagle's medium (DMEM) supplemented with fetal calf serum (10%) and streptomycin/penicillin (1%). They were grown to 80% confluence, and then serum-starved for 48 h. […] The expression of CTGF and collagen was assessed by immunoblot and normalized to GAPDH (loading control) expression. Results in the graphs (FIG. 3) represent average ±standard deviation from 3 independent experiments.
In a further example, BIP was used at lower concentrations (5 or 10 μM).

[3] = tested on: human keloid fibroblasts; experiment: TGF-β1 induced stress fiber formation in human keloid fibroblasts (phalloidin microscopy); type: cell-based; conditions: 60 μM BIP for 2 h followed by TGF-β1 1.25 ng/ml for 24 h
Procedure: Human keloid fibroblasts were maintained in Dulbecco's modified Eagle's medium (DMEM) supplemented with fetal calf serum (10%) and streptomycin/penicillin (1%). They were grown on cover slips and then serum-starved for 48 h. […] Cells were washed, processed for microscopy and labelled with Alexa 586-conjugated phalloidin to reveal the actin cytoskeleton and DAPI to reveal nucleus, magnification 40×.

[4] = tested on: human keloid fibroblasts; experiment: TGF-β1 induced phosphorylation of HSP27 in human keloid fibroblasts (fluorescence microscopy); type: cell-based; conditions: 60 μM BIP for 2 h followed by TGF-β1 1.25 ng/ml for 24 h
Procedure: Human keloid fibroblasts were maintained in Dulbecco's modified Eagle's medium (DMEM) supplemented with fetal calf serum (10%) and streptomycin/penicillin (1%). They were grown on cover slips and then serum-starved for 48 h. […] Cells were washed, processed for microscopy and labelled with Cy2 for phospho-HSP27 (ser 78/82, green fluorescence), Alexa 586-conjugated phalloidin (red) to reveal the actin cytoskeleton and DAPI (blue) to reveal nucleus, magnification 40×. Pre-treatment of cells with BIP followed by TGFb1 reduced phosphorylation of HSP27 in keloid fibroblasts.

[5] = tested on: human keloid fibroblasts; experiment: TGF-β1 induced phosphorylation of HSP27 in human keloid fibroblasts (immunoblot); type: cell-based
Excerpt: as §1
Human keloid fibroblasts were maintained in Dulbecco's modified Eagle's medium (DMEM) supplemented with fetal calf serum (10%) and streptomycin/penicillin (1%). They were grown to 80% confluence, and then serum-starved for 48 h. […] The phosphorylation of HSP27 was assessed by immunoblot analysis using antibodies as indicated. B, The ratio of P-P27 to P27 was calculated and the percent phosphorylation was determined with respect to the phosphorylation obtained with TGF b (lane 2).
In a separate example, lower concentrations of BIP (5 μM and 10 μM) were employed. […] TGF-β1-stimulated cells were treated with BIP (5 or 10 μM) for 24 h, and HSP27 and phospho-HSP27 levels were quantified relative to β-actin expression to correct for loading differences and normalized to untreated levels.

[6] = tested on: human saphenous vein (HSV); experiment: Sodium nitroprusside induced relaxation of human saphenous vein segments in a muscle bath; conditions: pretreated 2 hrs with 25 μM SB203580 or 30 μM BIP; contracted with NE 0.5 μM; SNP 0-1 μM; n=3; FIG. 5
Procedure: Segments of human saphenous vein (HSV) were equilibrated in a muscle bath and pretreated with buffer (control), 25 μM SB203580 (SB) or 30 μM BIP for 2 hrs and then contracted with norepinephrine (NE, 0.5 μM) and relaxed with increasing doses of sodium nitroprusside (SNP, 0-1 μM).

[7] = tested on: Human Aortic Endothelial Cells; experiment: Endothelial cell proliferation (CyQuant NF Cell Proliferation Assay); type: cell-based; conditions: 1, 10 or 50 μM BIP, 16 hours
Procedure: Human Aortic Endothelial Cells (Passage 2) (Cascade Biologics) were seeded into 96-well plates at a concentration of 2000 cells per well as determined using a hemocytometer and allowed to adhere for 4 hours. They were then treated with a final concentration of 1, 10 or 50 μM MK2 inhibitor peptide (BIP), 1, 10, or 50 μM scrambled peptide (SCR), or and equal volume of PBS. Cells were returned to the incubator for 16 hours and counted on a Molecular Devices M5 spectrophotometer after 1 hour treatment with CyQuant NF Cell Proliferation Assay (Invitrogen).

[8] = tested on: Human saphenous vein rings; experiment: Intimal thickening in human saphenous vein rings, 14 day organ culture; conditions: BIP 5 or 10 μM, SB 20 μM; 14 days; FIG. 6
Procedure: Human saphenous vein rings were cultured in RPMI medium supplemented with L-glutamine (1%), penicillin/streptomycin (1%) and FBS (30%) at 5% CO2 and 37° C. for 14 days. The rings were either untreated (C) or treated with BIP (5 or 10 μM), SB (20 μM) or recombinant HSP27 protein (r-HSP27). * p<0.05 compared to the control (untreated) rings. After 14 days, the rings were fixed in formalin, embedded in paraffin, sectioned at 10 micrometer and stained using Weigert's Resorcin Fuchsin. The slides were analyzed by Zeiss microscope with 40× objective. The intimal thickness was measured using Zeiss and Adobe Photoshop software.

[9] = tested on: Human saphenous vein rings; experiment: CTGF expression and phosphorylation of HSP27 in saphenous vein organ culture model (western blot); conditions: BIP 5 or 10 μM, SB 20 μM; 14 days; related to actin, untreated set to 1; FIG. 7
Procedure: The human saphenous vein rings were cultured in RPMI medium supplemented with L-glutamine (1%), penicillin/streptomycin (1%) and FBS (30%) at 5% CO2 and 37° C. for 14 days. The rings were either untreated (Control, C) or treated with BIP (5 or 10 μM) or SB (20 μM). Rings were frozen after 14 days and protein was extracted and separated by SDS-PAGE and analyzed by western blot using the antibodies as indicated. The data is shown in FIG. 7; Panel A is a representative blot, and Panels B and C show the data summary. The bands were quantified by densitometry, and CTGF, phosphorylated HSP27 or non-phosphorylated HSP27 expressions were related to actin expression to correct for loading differences. The expression of CTGF and HSP27 and phospho-HSP27 in untreated rings was set to 1 for comparison of different blots. Data expressed as mean ±standard deviation of 6 experiments (panel right). *: p<0.05 compared to the untreated rings (C).

[10] = tested on: Rat aortic smooth muscle, A7R5 cells; experiment: ARS or LPA induced phosphorylation of HSP27 in A7R5 cells (western blot); type: cell-based; conditions: BIP 1, 5 or 10 μM or SB 20 μM for 2 h prior to ARS 500 μM or LPA 25 μM for 0.5 h; FIG. 8
Procedure: The cells were serum starved with DMEM medium supplemented with 1% BSA and 1% penicillin/streptomycin for 24 h. The phosphorylation of HSP27 was induced using arsenite (ARS, 500 μM) or lysophosphatidic acid (LPA, 25 μM) for 0.5 h. Cells were either untreated or pre-treated with BIP (1, 5 or 10 μM) or SB (20 μM) for 2 h prior to the stimulation with ARS or LPA. Cells were frozen after treatment and analyzed by SDS-PAGE and western blot. The data are shown in FIG. 8; Panels A and B are representative western blots, while Panels C and D provide the data. The bands were quantified by densitometry, and phosphorylated HSP27 or non-phosphorylated HSP27 expressions were related to actin expression to correct for loading differences. The ratio of phosphorylated HSP27/HSP27 (relative p-HSP27/HSP27) in untreated cells was set to 1 for comparison of different blots. Data expressed as mean ±standard deviation of 4 experiments. *: p<0.05 compared to the untreated cells (C).

[11] = tested on: rat aortic smooth muscle (A7R5) cells; experiment: LPA induced CTGF expression in A7R5 cells (western blot); type: cell-based; conditions: BIP 10 or 20 μM or SB 20 μM for 2 h prior to LPA 25 μM, 24 h; FIG. 9
Procedure: The cells were serum starved with DMEM medium supplemented with 1% BSA and 1% penicillin/streptomycin for 24 h. Cells were either untreated (C) or pre-treated with BIP (10 or 20 μM) or SB (20 μM) for 2 h prior the stimulation with lysophosphatidic acid (LPA, 25 μM). After 24 h the cells were lysed, protein extracted and separated by SDS-PAGE and analyzed by western blotting. The data are shown in FIG. 9; Panel A is a representative western blot, while Panel B provides the data. The bands were quantified by densitometry, and CTGF expression was related to actin expression to correct for loading differences. CTGF expression in untreated cells (C) was set to 1 for comparison of different blots. Data expressed as mean ±standard deviation of 3 experiments. *: p<0.05 compared to the cells stimulated with LPA.

[12] = tested on: rat aortic smooth muscle (A7R5) cells; experiment: Scratch migration of A7R5 cells stimulated with LPA or TGF; type: cell-based; conditions: BIP 10 μM for 2 h prior to LPA 25 μM or TGF 2.5 ng/mL; FIG. 10
Procedure: A7R5 cells were serum starved with DMEM medium supplemented with 1% BSA and 1% penicillin/streptomycin for 24 h. A scratch made in the dishes using the tip of a pipette, and the cells were rinsed 3 times with PBS. Cells were untreated (C) or pre-treated with BIP (10 μM) for 2 h prior the stimulation with lysophosphatidic acid (LPA, 25 μM) or TGF (2.5 ng/mL). *: p<0.05 compared to the cells stimulated with LPA or TGF.

[13] = 10 μM BIP for 2 h followed by TGFβ1 1.25 ng/ml for 24 h
[14] = 60 μM BIP for 2 h followed by TGF-β1 1.25 ng/ml for 24 h, normalized to GAPDH, FIG. 3

MAPKAPKII, sequence (P49137 whole entry): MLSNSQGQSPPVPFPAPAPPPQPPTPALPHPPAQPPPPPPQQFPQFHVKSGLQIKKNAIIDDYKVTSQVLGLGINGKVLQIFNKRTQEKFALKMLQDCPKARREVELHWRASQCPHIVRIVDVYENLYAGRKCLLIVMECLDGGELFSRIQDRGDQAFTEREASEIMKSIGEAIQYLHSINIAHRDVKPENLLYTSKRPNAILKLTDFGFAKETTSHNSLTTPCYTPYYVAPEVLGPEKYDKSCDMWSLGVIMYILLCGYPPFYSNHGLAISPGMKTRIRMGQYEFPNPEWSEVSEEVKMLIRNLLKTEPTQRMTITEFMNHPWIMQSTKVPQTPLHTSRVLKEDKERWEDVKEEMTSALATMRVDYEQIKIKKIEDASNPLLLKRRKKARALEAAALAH

| Molecule | MAPKAPKII induced phosphorylation of HSP27 in vitro [1] | TGFβ1 induced expression of CTGF [2, 13] | TGFβ1 induced expression of collagen [2, 13] | TGF-β1 induced expression of CTGF [2, 14] | TGF-β1 induced expression of collagen [2, 14] | central actin [3] | stress fiber formation [3] | TGF-β1 induced phosphorylation of HSP27 (ser 78/82), fluorescence microscopy [4] | phosphorylation of HSP27 (phospho-HSP27 as ratio to endogenous HSP27) ([5]; 10 μM BIP for 2 h followed by TGFβ1 for 24 h, FIG. 2) | TGF-β1 induced phosphorylation of HSP27, immunoblot ([5]; 10 μM BIP for 24 h, TGF-β1-stimulated cells, relative to β-actin, normalized to untreated) | TGF-β1 induced phosphorylation of HSP27 (ratio P-P27 to P27), immunoblot ([5]; 60 μM BIP for 2 h followed by TGFβ-1 […] for 24 h, n=3, FIG. 4) | sodium nitroprusside induced relaxation of saphenous vein [6] | EC proliferation [7] | thickening of the intimal layer in saphenous vein [8] | CTGF expression in saphenous vein [9] | phosphorylation of HSP27 in saphenous vein [9] | phosphorylation of HSP27 (relative p-HSP27/HSP27) [10] | LPA induced CTGF expression [11] | migration of cells [12] |
| --- | --- | --- | --- | --- | --- | --- | --- | --- | --- | --- | --- | --- | --- | --- | --- | --- | --- | --- | --- |
| WLRRIKAWLRRIKALNRQLGVAA [BIP] | inhibits | inhibits | inhibits | inhibits | inhibits | loss of central actin | reduced stress fiber formation | reduced | reduces | inhibits | effectively inhibited | significant increases | Does Not Inhibit | inhibits | inhibits | inhibits | inhibits | inhibits | inhibits |
| C[S+]([O-])c1ccc(-c2nc(-c3ccncc3)c(-c3ccc(F)cc3)[nH]2)cc1 (stereo not shown) [SB, SB 203580, reference compound] |  |  |  |  |  |  |  |  |  |  |  | significant increases |  | Inhibits | Inhibits | Inhibits | Inhibits | Inhibits |  |

— patent publication US20080293640A1, “Polypeptide inhibitors of HSP27 kinase and uses therefor” (Arizona Board of Regents, A body Corporate, of the State of …, priority 2007, published 2008)
